The nature of data set [1]: acute toxicity tests in mice (Test 2). The note with it: mouse, in vivo; male mice, oral, in olive oil; mortality after 72 hours, area method. The protocol: In the acute toxicity tests, male mice (weight: 22 to 25 g) were used in groups of 10 each.
Each active ingredient was dissolved in olive oil and the solution was orally administrated in a volume corresponding to the body weight.
LD50 was calculated by the area method from the mortal percent after 72 hours from the administration.

Data set [2] has as its system rats with dietary hyperlipidemia. Description: The antihyperlipidemic activity in rats with dietary hyperlipidemia (Test 1). The data set is classed as in vivo, Wister type male rats. The note with it: Rattus norvegicus, cholesterol diet, 100 mg/kg oral once daily for 4 days, 24 hours after administration. How it is done:
The antihyperlipidemic activity in rats with dietary hyperlipidemia.
In the tests, Wister type male rats (weight: 140 g) were used in groups of 6 each.
A feed containing 2% of cholesterol, 1% of sodium cholate and 5% of coconut oil was given for 4 days to cause hyperlipidemia.
Each active ingredient was suspended in a 1% aqueous solution of Tween 80 (® polyoxyethylene sorbitane monoalkylate) and the suspension was orally administered in a dose of 100 mg/kg once daily for 4 days starting with the supply of the cholesterol supplemented diet.
After 24 hours from the administration, blood was sampled and the concentration of total cholesterols in blood-plasma was measured by the method described in Clinical chemistry Vol. 22 page 393 (1968) and the concentration of triglyceride (neutral fat) was measured by Fletcher method (Clinica Chimica Acta) Vol. 10 page 451 (1964).
As the active ingredients, the compounds of the invention shown in Table and ethyl-α-(p-chlorophenoxy)-isobutylate having the formula [drawing 25] were used.

Where [3] appears, read: total cholesterol in blood-plasma, read-out: Antihypertipidemic activity (%) Cholesterol.
Setting [4] is: triglyceride (neutral fat), Fletcher method, read-out: Antihypertipidemic activity (%) Triglyceride.

Structures are written as SMILES. Where two headings read alike, the source gives them in different places.

`CCOC(=O)C(Oc1cccc(C(F)(F)F)c1)C1CCCCC1` (stereo not drawn) [Compound 1] registered a median lethal dose (LD50) at 72 h in data set [1] of 2500 mg/kg. Moreover, the inhibition in vivo at 100 mg/kg in data set [2] (setting [3]) is 12.1%; in data set [2] (setting [4]), 49.3%.

With `CCOC(=O)C(Oc1cccnc1)C1CCCCC1` (stereo not drawn) [Compound 2], the LD50 at 72 h in data set [1] is 2500 mg/kg. Further, the inhibition in vivo at 100 mg/kg in data set [2] (setting [3]) came to 0%; in data set [2] (setting [4]), 45%.

For `CCOC(=O)C(Oc1ccc(Cl)cc1)C1CCCCC1` (stereo not drawn) [Compound 3], the LD50 at 72 h in data set [1] was > 3000 mg/kg. The inhibition in vivo at 100 mg/kg in data set [2] (setting [3]) amounted to 43.3%; in data set [2] (setting [4]) it was 31.5%.

Turning to `CCOC(=O)C(Oc1c(C)cccc1C)C1CCCCC1` (stereo not drawn) [Compound 4], in data set [1], the median lethal dose (LD50) at 72 h was > 3000 mg/kg. The inhibition in vivo at 100 mg/kg in data set [2] (setting [3]) stood at 38.5%; in data set [2] (setting [4]), 0%.

In the case of `CCOC(=O)C(Oc1ccc(OC)cc1)C1CCCCC1` (stereo not drawn) [Compound 5], the LD50 at 72 h in data set [1] was > 3000 mg/kg. Also, the inhibition in vivo at 100 mg/kg in data set [2] (setting [3]) amounted to 39%; in data set [2] (setting [4]), 8.9%.

Regarding `CCOC(=O)C(Oc1ccc(-c2ccccc2)cc1)C1CCCCC1` (stereo not drawn) [Compound 6, Ethyl α-(p-phenylphenoxy)α-cyclohexylacetate], the LD50 at 72 h in data set [1] is > 3000 mg/kg. Further, the results for the inhibition in vivo at 100 mg/kg in data set [2] (setting [3]) and in data set [2] (setting [4]) were 52.3% and 44%, respectively.

`CCOC(=O)C(Oc1ccc(C2CCCCC2)cc1)C1CCCCC1` (stereo not drawn) [Compound 7, Ethyl α-(p-cyclohexylphenoxy)α-cyclohexylacetate]: the LD50 at 72 h in data set [1] is > 3000 mg/kg. The inhibition in vivo at 100 mg/kg in data set [2] (setting [3]) amounted to 42.6%; in data set [2] (setting [4]), 51.6%.

Turning to `CCOC(=O)C(Oc1ccc(C(C)CC)cc1)C1CCCCC1` (stereo not drawn) [Compound 8], in data set [1], the LD50 at 72 h is > 3000 mg/kg. For the same molecule, the inhibition in vivo at 100 mg/kg amounted to 36.7% in data set [2] (setting [3]) and 17.1% in data set [2] (setting [4]).

For the molecule `CCOC(=O)C(Oc1ccc(C(C)(C)c2ccccc2)cc1)C1CCCCC1` (stereo not drawn) [Compound 9], the LD50 at 72 h in data set [1] is > 3000 mg/kg. Besides, the inhibition in vivo at 100 mg/kg in data set [2] (setting [3]) worked out at 40.3%; in data set [2] (setting [4]) it was 28.1%.

Consider `CCOC(=O)C(Oc1ccc2c(c1)CCCC2)C1CCCCC1` (stereo not drawn) [Compound 10, Ethyl α-(5,6,7,8-tetrahydro-2-naphthoxy)-α-cyclohexylacetate], for which the LD50 at 72 h in data set [1] is 2500 mg/kg. The results for the inhibition in vivo at 100 mg/kg in data set [2] (setting [3]) and in data set [2] (setting [4]) were 52.1% and 44.4%, respectively.

On to `CCOC(=O)C(Oc1ccc(C(C)=O)cc1)C1CCCCC1` (stereo not drawn) [Compound 11], for which the median lethal dose (LD50) at 72 h in data set [1] is > 3000 mg/kg. The inhibition in vivo at 100 mg/kg amounted to 31.8% in data set [2] (setting [3]) and 30.9% in data set [2] (setting [4]).

Take `CCOC(=O)C(Oc1cccc(C(C)=O)c1)C1CCCCC1` (stereo not drawn) [Compound 12]: the LD50 at 72 h in data set [1] was > 3000 mg/kg. Moreover, the inhibition in vivo at 100 mg/kg in data set [2] (setting [3]) came out at 14.3%; in data set [2] (setting [4]), 11.5%.

On to `CCOC(=O)C(Oc1cccc(C)c1)C1CCCCC1` (stereo not drawn) [Compound 13], for which the LD50 at 72 h in data set [1] was > 3000 mg/kg. The inhibition in vivo at 100 mg/kg is 7.9% in data set [2] (setting [3]) and 59.7% in data set [2] (setting [4]).

As for `CCOC(=O)C(Oc1ccc(CC)cc1)C1CCCCC1` (stereo not drawn) [Compound 14, Ethyl α-(p-ethylphenoxy)α-cyclohexylacetate], the LD50 at 72 h in data set [1] is > 3000 mg/kg. The inhibition in vivo at 100 mg/kg in data set [2] (setting [3]) is 42.6%; in data set [2] (setting [4]), 64.8%.

In data set [1], `CCOC(=O)C(Oc1ccc(Cl)c2ccccc12)C1CCCCC1` (stereo not drawn) [Compound 15] registered an LD50 at 72 h of 2500 mg/kg. For the same molecule, the inhibition in vivo at 100 mg/kg in data set [2] (setting [3]) worked out at 0%; in data set [2] (setting [4]), 53%.

On to `CCOC(=O)C(Oc1ccc(Oc2ccccc2)cc1)C1CCCCC1` (stereo not drawn) [Compound 16, ethyl α-(p-phenoxyphenoxy)α-cyclohexylacetate], for which the median lethal dose (LD50) at 72 h in data set [1] is > 3000 mg/kg. In addition, the inhibition in vivo at 100 mg/kg worked out at 40.8% in data set [2] (setting [3]) and 38.7% in data set [2] (setting [4]).

`CCOC(=O)C(Oc1ccc(Oc2ccc(Cl)cc2)cc1)C1CCCCC1` (stereo not drawn) [Compound 17]: in data set [1], the median lethal dose (LD50) at 72 h is > 3000 mg/kg. For the same molecule, the inhibition in vivo at 100 mg/kg in data set [2] (setting [3]) is 45.3%; in data set [2] (setting [4]), 46.5%.

Take `CCOC(=O)C(Oc1ccc(-c2ccc(Cl)cc2)cc1)C1CCCCC1` (stereo not drawn) [Compound 18]: the LD50 at 72 h in data set [1] is > 3000 mg/kg. Besides, the values for the inhibition in vivo at 100 mg/kg in data set [2] (setting [3]) and in data set [2] (setting [4]) were 43.7% and 40.5%, respectively.

Consider `O=C(O)C(Oc1ccc(C2CCCCC2)cc1)C1CCCCC1` (stereo not drawn) [Compound 19, α-(p-cyclohexylphenoxy)α-cyclohexylacetic acid], for which the LD50 at 72 h in data set [1] was > 3000 mg/kg. In addition, the inhibition in vivo at 100 mg/kg in data set [2] (setting [3]) turned out to be 35.8%; in data set [2] (setting [4]) it was 32.4%.

Values taken from patent publication US4278678A, “Substituted oxy-cyclohexylacetic acid derivatives” (Kaken Chemical Co., Ltd., priority 1978, dated 1981).
